What was measured:
[1] = Acute toxicity in Kunming mouse assessed as damage in spleen at 50 to 1000 mg/kg measured after 7 days; type: organism-based; details: in vivo, 168 h, dose 50-1000 mg/kg, time 7 day
Mus musculus [2] = experiment: Improvement in brain cholinergic activity in scopolamine-induced mouse model of amnesia assessed as change in AChE vitality at 20 mg/kg (reference value: 0.105 U/mg); type: functional
Homo sapiens = species on record: Homo sapiens; experiment: Selectivity index, ratio of IC50 for recombinant human MAO-A to IC50 for recombinant human MAO-B
Mus musculus [3] = experiment: Improvement in brain cholinergic activity in scopolamine-induced mouse model of amnesia assessed as change in AChE vitality at 6 mg/kg (reference value: 0.105 U/mg); type: functional
[4] = Toxicity in AlCl3-induced Zebrafish model of Alzheimer's disease assessed as mortality at 200 ug/ml relative to control; parameters: species or system Danio rerio; details: in vivo, at 200 µg/mL

CCN(C)C(=O)Oc1ccc(/C=C/C(=O)N2CCc3ccccc3C2)cc1OC
Activity [1]: Non-Toxic
Activity (Mus musculus [2]): 0.1 U/mg
Ratio IC50 (Homo sapiens): 3
Activity (Mus musculus [3]): 0.098 U/mg
mortality at 200 ug/ml [4]: 100%

From ChEMBL document CHEMBL4680246, “Design, synthesis and biological evaluation of novel O-carbamoyl ferulamide derivatives as multi-target-directed ligands for the treatment of Alzheimer's disease” (Eur J Med Chem, 2020)
